Assay results taken from patent US10947205B2, “Oxazolidinone compounds and methods of use thereof as antibacterial agents” (priority 2015, dated 2021).
Values after ≈ are worked out from the molar mass of the structure shown. Where two headings read alike, the source gives them in different places.

Legend:
[1] = system: Mycobacterium tuberculosis (Mtb); assay: microbe, parasite or virus in culture; assay type: cell-based, Mycobacterium tuberculosis H37Rv (Mtb-GFP); conditions: 168 h
[2] = system: mitochondrial protein synthesis in HepG2 cells (COX-I / SDH-A); assay: Mitochondrial protein synthesis assay; assay type: cell-based; conditions: Homo sapiens, read-out: MPS IC50_μM
Method: (§1) Inhibition of mitochondrial protein synthesis was assessed in HepG2 cells by comparing the levels of two subunits of oxidative phosphorylation enzyme complexes, subunit I of Complex IV (COX-I) and the 70 kDa subunit of Complex II (SDH-A). COX-I is mitochondrial DNA encoded and SDH-A is nuclear DNA encoded. HepG2 cells were seeded in 96-well collagen coated plates at 8,000 cells per well and exposed to 2-fold serial dilutions of compounds from 100 LM to 6.25 μM. Microtiter plates were incubated for approximately 5 replication cycles (4 days) prior to assessment of protein levels using a kit as described by the manufacturer (ab 110217 MitoBiogenesis In Cell ELISA Kit, Abcam, Cambridge, Mass.). Inhibition of mitochondrial protein synthesis was expressed as a ratio of COX-1 to SDH-A levels.
as §1, with “μM” for “LM”

[3] = system: Staphylococcus aureus (methicillin resistant, MB5393, COL); assay: microbe, parasite or virus in culture; assay type: cell-based; conditions: MRSA, 22 h, read-out: MRSA COL MITC95 μM
Method: Inhibition of Staphylococcus aureus (methicillin resistant, MB5393, COL) growth was assessed in cation adjusted Mueller Hinton II broth (CAMHB) in 384-well microtiter plates. Bacteria were dispensed into microtiter plates at approximately 5×10^5 actively growing cells in 49 μL volumes per well. Cells were exposed to 2-fold serial dilutions of compounds from 200 μM to 0.195 μM and growth compared to drug-free control. Compound dilutions were prepared in 100% dimethylsulfoxide and added to microtiter plates in 1 μL volumes per well. Full growth control wells contained dimethylsufoxide and bacteria. No growth control wells contained dimethysulfoxide and CAMHB but no bacteria. Growth inhibition was assessed after a 22-hour growth period by measuring optical density using a spectrophotometer. The lowest concentration of test compound required to inhibit 95% of the growth of the bacteria was defined as the MITC95. All studies were done in a BSL2 facility.

[4] = pH 6.8, read-out: Mtb Cho MITC95_μM
[5] = pH 6.8, read-out: Mtb Glu MITC95_μM
[6] = 96 h, HepG2 cells, 4 days, ratio of COX-1 to SDH-A levels

SMILES: CSc1ccc(-c2ncc(N3C[C@H](CNC(C)=O)OC3=O)cc2F)cc1 [Example 40, (S)—N-((3-(5-fluoro-6-(4-(methylthio)phenyl)pyridin-3-yl)-2-oxooxazolidin-5-yl)methyl)acetamide]
- MIC [1, 4]: 0.09 µM (≈ 0.0338 µg/mL)
- MIC [1, 5]: 0.076 µM (≈ 0.0285 µg/mL)
- IC50 ([2]; HepG2, 96 h): > 15 µM
- MIC [3]: 4.69 µM (≈ 1.76 µg/mL)

SMILES: NC[C@H]1CN(c2ccc(-c3cccc([N+](=O)[O-])c3)c(F)c2)C(=O)O1 [Example 20, (5S)-5-(aminomethyl)-3-(2-fluoro-3′-nitrobiphenyl-4-yl)-1,3-oxazolidin-2-one]
- MIC [1, 4]: 0.58 µM (≈ 0.192 µg/mL)
- MIC [1, 5]: 0.14 µM (≈ 0.0464 µg/mL)
- IC50 [2, 6]: > 20 µM
- MIC [3]: 200 µM (≈ 66.3 µg/mL)

SMILES: NCC(=O)NC[C@H]1CN(c2ccc(-c3ccc(C(N)=O)cc3)c(F)c2)C(=O)O1 [Example 57, (S)-4′-(5-((2-aminoacetamido)methyl)-2-oxooxazolidin-3-yl)-2′-fluoro-[1,1′-biphenyl]-4-carboxamide]
- MIC [1, 4]: 0.535 µM (≈ 0.207 µg/mL)
- MIC [1, 5]: 0.29 µM (≈ 0.112 µg/mL)
- IC50 [2, 6]: 50 µM
- MIC [3]: 25 µM (≈ 9.66 µg/mL)

SMILES: CSc1ccc(-c2ccc(N3C[C@H](CN)OC3=O)cc2F)cc1 [Example 1, (S)-5-(aminomethyl)-3-(2-fluoro-4′-(methylthio)-[1,1′-biphenyl]-4-yl)oxazolidin-2-one]
- MIC [1, 4]: 0.03 µM (≈ 0.00997 µg/mL)
- MIC [1, 5]: 0.04 µM (≈ 0.0133 µg/mL)
- IC50 [2, 6]: 12.2 µM
- MIC [3]: 25 µM (≈ 8.31 µg/mL)

SMILES: CSc1ccc(-c2ccc(N3C[C@H](Cn4cnnn4)OC3=O)cc2F)cc1 [Example 44, (5R)-3-[2-fluoro-4′-(methylsulfanyl)biphenyl-4-yl]-5-(1H-tetrazol-1-ylmethyl)-1,3-oxazolidin-2-one]
- MIC [1, 4]: 0.04 µM (≈ 0.0154 µg/mL)
- MIC [1, 5]: 0.19 µM (≈ 0.0732 µg/mL)
- IC50 [2, 6]: > 20 µM
- MIC [3]: 200 µM (≈ 77.1 µg/mL)

SMILES: NC[C@H]1CN(c2ccc(-c3ccc(S(N)(=O)=O)cc3)c(F)c2)C(=O)O1 [Example 6, 4′-[(5S)-5-(aminomethyl)-2-oxo-1,3-oxazolidin-3-yl]-2′-fluorobiphenyl-4-sulfonamide]
- MIC [1, 4]: 0.04 µM (≈ 0.0146 µg/mL)
- MIC [1, 5]: 0.04 µM (≈ 0.0146 µg/mL)
- IC50 [2, 6]: > 20 µM
- MIC [3]: 100 µM (≈ 36.5 µg/mL)

SMILES: CN(C)S(=O)(=O)c1ccc(-c2ccc(N3C[C@H](CN)OC3=O)cc2F)cc1 [Example 14, 4′-[(5S)-5-(aminomethyl)-2-oxo-1,3-oxazolidin-3-yl]-2′-fluoro-N,N-dimethylbiphenyl-4-sulfonamide]
- MIC [1, 4]: 1.14 µM (≈ 0.449 µg/mL)
- MIC [1, 5]: 0.78 µM (≈ 0.307 µg/mL)
- MIC [3]: 200 µM (≈ 78.7 µg/mL)

SMILES: NC[C@H]1CN(c2ccc(-c3ccnc(Cl)c3)c(F)c2)C(=O)O1 [Example 30, (5S)-5-(aminomethyl)-3-[4-(2-chloropyridin-4-yl)-3-fluorophenyl]-1,3-oxazolidin-2-one]
- MIC [1, 4]: 0.39 µM (≈ 0.125 µg/mL)
- MIC [1, 5]: 0.09 µM (≈ 0.029 µg/mL)
- IC50 [2, 6]: > 20 µM
- MIC [3]: 200 µM (≈ 64.3 µg/mL)

SMILES: NC[C@H]1CN(c2ccc(-c3ccccc3)c(F)c2)C(=O)O1 [Example 39, (5S)-5-(aminomethyl)-3-(2-fluorobiphenyl-4-yl)-1,3-oxazolidin-2-one]
- MIC [1, 4]: 0.78 µM (≈ 0.223 µg/mL)
- MIC [1, 5]: 0.585 µM (≈ 0.167 µg/mL)
- IC50 [2, 6]: > 20 µM
- MIC [3]: 200 µM (≈ 57.3 µg/mL)

SMILES: COC(=O)NC[C@H]1CN(c2ccc(-c3ccc(SC)cc3)c(F)c2)C(=O)O1 [Example 62, (S)-methyl ((3-(2-fluoro-4′-(methylthio)-[1,1′-biphenyl]-4-yl)-2-oxooxazolidin-5-yl)methyl)carbamate]
- MIC [1, 4]: 0.04 µM (≈ 0.0156 µg/mL)
- MIC [1, 5]: 0.04 µM (≈ 0.0156 µg/mL)
- IC50 [2, 6]: 10 µM
- MIC [3]: 200 µM (≈ 78.1 µg/mL)

SMILES: CSc1ccc(-c2c(F)cc(N3C[C@H](CNC(C)=O)OC3=O)cc2F)cc1 [Example 47, (S)—N-((3-(2,6-difluoro-4′-(methylthio)-[1,1′-biphenyl]-4-yl)-2-oxooxazolidin-5-yl)methyl)acetamide]
- MIC [1, 4]: 0.01 µM (≈ 0.00392 µg/mL)
- MIC [1, 5]: 0.03 µM (≈ 0.0118 µg/mL)
- IC50 [2, 6]: > 20 µM
- MIC [3]: 0.781 µM (≈ 0.307 µg/mL)

SMILES: CSc1ccc(-c2ccc(N3C[C@H](CNC(=O)C4CC4)OC3=O)cc2F)cc1 [Example 41, (S)—N-((3-(2-fluoro-4′-(methylthio)-[1,1′-biphenyl]-4-yl)-2-oxooxazolidin-5-yl)methyl)cyclopropanecarboxamide]
- MIC [1, 4]: 0.04 µM (≈ 0.016 µg/mL)
- MIC [1, 5]: 0.04 µM (≈ 0.016 µg/mL)
- IC50 [2, 6]: 8 µM
- MIC [3]: 200 µM (≈ 80.1 µg/mL)

SMILES: NC[C@H]1CN(c2ccc(-c3ccc4ncnn4c3)c(F)c2)C(=O)O1 [Example 5, (5S)-5-(aminomethyl)-3-(3-fluoro-4-[1,2,4]triazolo[1,5-a]pyridin-6-ylphenyl)-1,3-oxazolidin-2-one]
- MIC [1, 4]: 0.09 µM (≈ 0.0295 µg/mL)
- MIC [1, 5]: 0.04 µM (≈ 0.0131 µg/mL)
- IC50 [2, 6]: > 20 µM
- MIC [3]: 200 µM (≈ 65.5 µg/mL)

SMILES: NC[C@H]1CN(c2ccc(-c3ccc4nncn4c3)c(F)c2)C(=O)O1 [Example 9, (5S)-5-(aminomethyl)-3-(3-fluoro-4-[1,2,4]triazolo[4,3-a]pyridin-6-ylphenyl)-1,3-oxazolidin-2-one]
- MIC [1, 4]: 0.14 µM (≈ 0.0458 µg/mL)
- MIC [1, 5]: 0.09 µM (≈ 0.0295 µg/mL)
- IC50 [2, 6]: > 20 µM
- MIC [3]: 200 µM (≈ 65.5 µg/mL)

SMILES: NC[C@H]1CN(c2ccc(-c3cncnc3)c(F)c2)C(=O)O1 [Example 25, (5S)-5-(aminomethyl)-3-(3-fluoro-4-pyrimidin-5-ylphenyl)-1,3-oxazolidin-2-one]
- MIC [1, 4]: 0.19 µM (≈ 0.0548 µg/mL)
- MIC [1, 5]: 0.04 µM (≈ 0.0115 µg/mL)
- IC50 [2, 6]: > 20 µM
- MIC [3]: 200 µM (≈ 57.7 µg/mL)

SMILES: CC(=O)NC[C@H]1CN(c2ccc(N3CCOCC3)c(F)c2)C(=O)O1 [linezolid, reference compound]
- MIC [1, 4]: 3.14 µM (≈ 1.06 µg/mL)
- MIC [1, 5]: 4.58 µM (≈ 1.55 µg/mL)
- IC50 [2, 6]: 8 µM
- MIC [3]: 6.25 µM (≈ 2.11 µg/mL)

SMILES: NC[C@H]1CN(c2ccc(-c3ccc(O)cc3)c(F)c2)C(=O)O1 [Example 11, (5S)-5-(aminomethyl)-3-(2-fluoro-4′-hydroxybiphenyl-4-yl)-1,3-oxazolidin-2-one]
- MIC [1, 4]: 0.14 µM (≈ 0.0423 µg/mL)
- MIC [1, 5]: 25.1 µM (≈ 7.59 µg/mL)
- MIC [3]: 200 µM (≈ 60.5 µg/mL)

SMILES: NC[C@H]1CN(c2ccc(-c3cnn(C(F)F)c3)c(F)c2)C(=O)O1 [Example 36, (5S)-5-(aminomethyl)-3-{4-[1-(difluoromethyl)-1H-pyrazol-4-yl]-3-fluorophenyl}-1,3-oxazolidin-2-one]
- MIC [1, 4]: 0.48 µM (≈ 0.157 µg/mL)
- MIC [1, 5]: 1.5 µM (≈ 0.489 µg/mL)
- MIC [3]: 200 µM (≈ 65.3 µg/mL)

SMILES: CSc1ccc(-c2ccc(N3CC(Cn4ccnc4)OC3=O)cc2F)cc1 (stereo in doubt) [Example 45, (5R)-3-[2-fluoro-4′-(methylsulfanyl)biphenyl-4-yl]-5-(1H-imidazol-1-ylmethyl)-1,3-oxazolidin-2-one]
- MIC [1, 4]: 0.39 µM (≈ 0.15 µg/mL)
- MIC [1, 5]: 1.14 µM (≈ 0.437 µg/mL)
- MIC [3]: 200 µM (≈ 76.7 µg/mL)

SMILES: NC[C@H]1CN(c2ccc(-c3ccoc3)c(F)c2)C(=O)O1 [Example 12, (5S)-5-(aminomethyl)-3-(3-fluoro-4-furan-3-ylphenyl)-1,3-oxazolidin-2-one]
- MIC [1, 4]: 1.14 µM (≈ 0.315 µg/mL)
- MIC [1, 5]: 1.14 µM (≈ 0.315 µg/mL)
- MIC [3]: 200 µM (≈ 55.3 µg/mL)

SMILES: CSc1ccc(-c2ccc(N3C[C@H](CNC(=O)NN(C)C)OC3=O)cc2F)cc1 [Example 60, (S)—N-((3-(2-fluoro-4′-(methylthio)-[1,1′-biphenyl]-4-yl)-2-oxooxazolidin-5-yl)methyl)-2,2-dimethylhydrazinecarboxamide]
- MIC [1, 4]: 1.14 µM (≈ 0.477 µg/mL)
- MIC [1, 5]: 2.3 µM (≈ 0.963 µg/mL)
- MIC [3]: 200 µM (≈ 83.7 µg/mL)

SMILES: NC[C@H]1CN(c2ccc(-c3ccsc3)c(F)c2)C(=O)O1 [Example 15, (5S)-5-(aminomethyl)-3-(3-fluoro-4-thiophen-3-ylphenyl)-1,3-oxazolidin-2-one]
- MIC [1, 4]: 0.58 µM (≈ 0.17 µg/mL)
- MIC [1, 5]: 1.14 µM (≈ 0.333 µg/mL)
- MIC [3]: 200 µM (≈ 58.5 µg/mL)

SMILES: NC[C@H]1CN(c2ccc(-c3cncc4[nH]ccc34)c(F)c2)C(=O)O1 [Example 35, (5S)-5-(aminomethyl)-3-[3-fluoro-4-(1H-pyrrolo[2,3-c]pyridin-4-yl)phenyl]-1,3-oxazolidin-2-one]
- MIC [1, 4]: 0.58 µM (≈ 0.189 µg/mL)
- MIC [1, 5]: 1.14 µM (≈ 0.372 µg/mL)
- MIC [3]: 200 µM (≈ 65.3 µg/mL)
